This assay has as its system OVCAR3 ovarian cancer model. Kind of assay: M825 and M825-MMAE in OVCAR3 ovarian cancer model. Conditions: 0.2 mg/kg, equivalent to maximum MMAE in the 10 mg/kg ADC group. The class given is in vivo, mouse. The method, then:
Treatment initiated when tumor volume reached approximately 120 mm^3. M825 was given i.v. at 10 mg/kg and M825-MMAE was given i.v. at 1, 3, or 10 mg/kg, 2 times per week for 3.5 weeks. […] The 10 mg/kg ADC group was redosed on Day 56, 2 times per week.

From patent US10434174B2, “Combination therapies using platinum agents and agents that target tumor-associated stroma or tumor cells” (BIOMED VALLEY DISCOVERIES, INC., priority 2014, dated 2019) come the findings set out here.

Square brackets hold non-standard residues; d marks the D form. Peptide text beside a SMILES is read from it. * marks the point of attachment. Dolaproine = CO[C@@H]([C@@H]1CCCN1)[C@@H](C)C(=O)O; Dil = CC[C@H](C)[C@H](NC)[C@@H](CC(=O)O)OC; X1 = C[C@@H](N*)[C@@H](O)c1ccccc1; NMeV = CN[C@H](C(=O)O)C(C)C

Take `CC[C@H](C)[C@@H]([C@@H](CC(=O)N1CCC[C@H]1[C@H](OC)[C@@H](C)C(=O)N[C@H](C)[C@@H](O)c1ccccc1)OC)N(C)C(=O)[C@@H](NC(=O)[C@@H](NC)C(C)C)C(C)C` [MMAE] (H-[NMeV]V[Dil][Dolaproine]-X1): the tumor growth entry was “No effect”.
